Laboratory results from US9745348B2 (The University of Manchester, priority 2011, dated 2017).
Where a SMILES comes first, the peptide text is derived from it. Where no end group is shown, it is not given here. [ ]: non-standard residue; d: D form. Orn = NCCC[C@H](N)C(=O)O

Experiments:
[1] = in vitro; assay type: cell-based; conditions: human, neonatal fibroblasts (HDFn cells)
Procedure: (§1) MTT assay: Cell viability and proliferation is widely assessed by the MTT assay as already described previously.
The fibroblasts cells, Neonatal (HDFn) and Adult (HDFa), were both grown until greater than 80% confluent. The cells were then harvested and seeded into micro well plate at cell densities of 5000 cells/well in a volume […] of medium. After 24 hour incubation the culture medium was replaced with fresh medium containing an appropriate amount of the peptide for investigation.

[2] = MTT viability of fibroblasts over three days; assay type: cell-based, human; conditions: human, adult fibroblasts (HDFa cells)
Procedure: as §1
(§2) The fibroblasts cells, Neonatal (HDFn) and Adult (HDFa), were both grown until greater than 80% confluent. […] After 24 hour incubation the culture medium was replaced with fresh medium containing an appropriate amount of the peptide for investigation.
(§3) The viability of the fibroblasts, Adult (HDFa) and Neonatal (HDFn) cells in the presence of surfactants was tested by MTT assay over three days relative to control wells containing cells only.

[3] = system: HeLa and HL60 cancer cell lines; conditions: 24 h
Procedure: Antitumor activities of peptides were measured using the 3-(4,5-dimethylthiazol-2-yl)-2,-diphenyl tetrazolium bromide (MTT) assay, and the IC50 value was calculated as the concentration of peptide that induced 50% growth inhibition compared to the untreated control.
HeLa and HL60 cells were seeded in 96-well plates (10^5 cells/well) in a complete medium [Iscove's modified dulbecco's medium (IMDM)] with 10% fetal bovine serum (FBS) for 24 h before peptide treatment. […] Following incubation with peptides, 20 μL of a 5 mg/ml solution MTT reagent was added to each well and incubated for 4 h at 37° C. After removing the supernatant, 150 μL of dimethyl sulfoxide (DMSO) was added to dissolve the formazan crystals that remained in the wells. The absorbance was determined using a microplate ELISA Reader at 570 nm. Wells without cells for blanking the spectrophotometer and the cells without peptides were taken as negative controls.

[4] = system: fibroblasts Adult (HDFa) cells; assay: MTT viability of fibroblasts over three days; assay type: cell-based, human
Procedure: as §1, §2, §3

Row | Compound | viability at 24 h, 5 µM [1] [%] | viability at 24 h, 25 µM [1] [%] | viability at 24 h, 50 µM [1] [%] | viability at 24 h, 100 µM [1] [%] | viability at 48 h, 5 µM [1] [%] | viability at 48 h, 25 µM [1] [%] | viability at 48 h, 50 µM [1] [%] | viability at 48 h, 100 µM [1] [%] | viability at 72 h, 5 µM [1] [%] | viability at 72 h, 25 µM [1] [%] | viability at 72 h, 50 µM [1] [%] | viability at 72 h, 100 µM [1] [%] | viability at 24 h, 5 µM [2] [%] | viability at 24 h, 25 µM [2] [%] | viability at 24 h, 50 µM [2] [%] | viability at 24 h, 100 µM [2] [%] | viability at 48 h, 5 µM [2] [%] | viability at 48 h, 25 µM [2] [%] | viability at 48 h, 50 µM [2] [%] | viability at 48 h, 100 µM [2] [%] | also measured
1 | GIKKKIIKKIIKII-NH2 [GIK, GIK(KKII)2 KII-NH2] | 93 | 98 | 92 | 85 | 87 | 84 | 81 | 78 | 83 | 78 | 75 | 71 | 97 | 92 | 87 | 85 | 95 | 93 | 78 | 74 | viability at 72 h, 5 µM [2]: 91%; viability at 72 h, 25 µM [2]: 90%; viability at 72 h, 50 µM [2]: 73%; viability at 72 h, 100 µM [2]: 65%
2 | CC[C@H](C)[C@H](NC(=O)[C@H](CCCN)NC(=O)[C@H](CCCN)NC(=O)[C@@H](NC(=O)[C@@H](NC(=O)[C@H](CCCN)NC(=O)[C@H](CCCN)NC(=O)[C@@H](NC(=O)[C@@H](NC(=O)[C@H](CCCN)NC(=O)[C@H](CCCN)NC(=O)[C@@H](NC(=O)[C@@H](NC(=O)CN)[C@@H](C)CC)[C@@H](C)CC)[C@@H](C)CC)[C@@H](C)CC)[C@@H](C)CC)[C@@H](C)CC)C(N)=O [GO, G(IIOO)3 I-NH2] (H-GII[Orn][Orn]II[Orn][Orn]II[Orn][Orn]I-NH2) | 95 | 91 | 88 | 83 | 91 | 85 | 81 | 75 | 85 | 80 | 75 | 65 | 101 | 98 | 95 | 88 | 95 | 92 | 83 | 75 | IC50 [3]: 4 to 25 µM; viability at 72 h, 5 µM [2]: 90%; viability at 72 h, 25 µM [2]: 82%; viability at 72 h, 50 µM [2]: 78%; viability at 72 h, 100 µM [2]: 70%
3 | GKIKKIIKKIIKII-NH2 [GKI, GKI(KKII)2 KII-NH2] | 95 | 87 | 81 | 69 | 90 | 83 | 75 | 60 | 88 | 78 | 71 | 55 | 95 | 93 | 90 | 85 | 82 | 81 | 80 | 75 | IC50 [3]: 4 to 25 µM; viability at 72 h, 5 µM [2]: 81%; viability at 72 h, 25 µM [2]: 75%; viability at 72 h, 50 µM [2]: 71%; viability at 72 h, 100 µM [2]: 70%
4 | GLLKKLLKKLLKKL-NH2 [GL, G(LLKK)3 L-NH2] | 98 | 88 | 85 | 80 | 87 | 84 | 74 | 65 | 83 | 81 | 67 | 35 | 91 | 90 | 87 | 63 | 90 | 88 | 75 | 57 | viability at 72 h, 5 µM [2]: 87%; viability at 72 h, 25 µM [2]: 74%; viability at 72 h, 50 µM [2]: 46%; viability at 72 h, 100 µM [2]: 11%
5 | cocamide ethanolamines [CMEA] | – | – | – | – | – | – | – | – | – | – | – | – | – | – | – | – | – | – | – | – | MTT results (relative MTT reading) [4]: 0.00
